Measurements as given in ChEMBL document CHEMBL1201862, “PubChem BioAssay data set” (2004).
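Following 48 hours of exposure in 96-well plates, responses at five concentrations were used to interpolate endpoints linearly. GI50 = concentration required for 50% inhibition of growth.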 Active and inactive are the calls of the source. Cut-off read from the data, not from the text of the source: active = GI50 up to about 1.1 µM and inactive = higher.

Key:
Test in all cases: NCI-60 cell line screen, 48 h
786-0 = tested on: 786-0
A498 = tested on: A498
A549 = tested on: A549
ACHN = tested on: ACHN
BT-549 = tested on: BT-549
CAKI-1 = tested on: CAKI-1
COLO 205 = tested on: COLO 205
DU-145 = tested on: DU-145
EKVX = tested on: EKVX
HCT-116 = tested on: HCT-116
HCT-15 = tested on: HCT-15
HL-60 = tested on: HL-60
HOP-62 = tested on: HOP-62
HOP-92 = tested on: HOP-92
HT-29 = tested on: HT-29
Hs-578T = tested on: Hs-578T
IGROV-1 = tested on: IGROV-1
K562 = tested on: K562
KM12 = tested on: KM12
LOX IMVI = tested on: LOX IMVI
M14 = tested on: M14
MCF7 = tested on: MCF7
MDA-MB-231 = tested on: MDA-MB-231
MDA-MB-435 = tested on: MDA-MB-435
MDA-N = tested on: MDA-N
MOLT-4 = tested on: MOLT-4
Malme-3M = tested on: Malme-3M
NCI-H226 = tested on: NCI-H226
NCI-H23 = tested on: NCI-H23
NCI-H460 = tested on: NCI-H460
NCI-H522 = tested on: NCI-H522
NCI/ADR-RES = tested on: NCI/ADR-RES
OVCAR-3 = tested on: OVCAR-3
OVCAR-4 = tested on: OVCAR-4
OVCAR-5 = tested on: OVCAR-5
OVCAR-8 = tested on: OVCAR-8
PC-3 = tested on: PC-3
RPMI-8226 = tested on: RPMI-8226
RXF 393 = tested on: RXF 393
SF-268 = tested on: SF-268
SF-295 = tested on: SF-295
SF-539 = tested on: SF-539
SK-MEL-28 = tested on: SK-MEL-28
SK-MEL-2 = tested on: SK-MEL-2
SK-MEL-5 = tested on: SK-MEL-5
SK-OV-3 = tested on: SK-OV-3
SN12C = tested on: SN12C
SNB-19 = tested on: SNB-19
SNB-75 = tested on: SNB-75
SR = tested on: SR
SW-620 = tested on: SW-620
T47D = tested on: T47D
TK-10 = tested on: TK-10
U-251 = tested on: U-251
UACC-257 = tested on: UACC-257
UACC-62 = tested on: UACC-62
UO-31 = tested on: UO-31
CCRF-CEM = tested on: CCRF-CEM

Compound: Clc1cccc(Cl)c1C(Nc1nncs1)Nc1nncs1
- GI50 (786-0): 28.7 µM (inactive)
- GI50 (A498): 49.2 µM (inactive)
- GI50 (A549): 48.9 µM (inactive)
- GI50 (ACHN): 73.6 µM (inactive)
- GI50 (BT-549): 73.3 µM (inactive)
- GI50 (CAKI-1): 75.3 µM (inactive)
- GI50 (COLO 205): 35.4 µM (inactive)
- GI50 (DU-145): 51.5 µM (inactive)
- GI50 (EKVX): 43.9 µM (inactive)
- GI50 (HCT-116): 28.6 µM (inactive)
- GI50 (HCT-15): 13 µM
- GI50 (HL-60): 17.3 µM (inactive)
- GI50 (HOP-62): 50.4 µM (inactive)
- GI50 (HOP-92): > 100 µM (inactive)
- GI50 (HT-29): 14.1 µM (inactive)
- GI50 (Hs-578T): 71.3 µM (inactive)
- GI50 (IGROV-1): 55.3 µM (inactive)
- GI50 (K562): 31.7 µM (inactive)
- GI50 (KM12): 27.7 µM (inactive)
- GI50 (LOX IMVI): 21.8 µM (inactive)
- GI50 (M14): 36.2 µM (inactive)
- GI50 (MCF7): 36 µM (inactive)
- GI50 (MDA-MB-231): > 100 µM (inactive)
- GI50 (MDA-MB-435): 11.1 µM (inactive)
- GI50 (MDA-N): 9.27 µM (inactive)
- GI50 (MOLT-4): 17.3 µM (inactive)
- GI50 (Malme-3M): 64.4 µM (inactive)
- GI50 (NCI-H226): 26.9 µM (inactive)
- GI50 (NCI-H23): 40.2 µM (inactive)
- GI50 (NCI-H460): 25 µM (inactive)
- GI50 (NCI-H522): 22.3 µM (inactive)
- GI50 (NCI/ADR-RES): 50 µM (inactive)
- GI50 (OVCAR-3): 46.7 µM (inactive)
- GI50 (OVCAR-4): 59.4 µM (inactive)
- GI50 (OVCAR-5): 36.5 µM (inactive)
- GI50 (OVCAR-8): 33.8 µM (inactive)
- GI50 (PC-3): 9.35 µM (inactive)
- GI50 (RPMI-8226): 46 µM (inactive)
- GI50 (RXF 393): 33.5 µM (inactive)
- GI50 (SF-268): 81.7 µM (inactive)
- GI50 (SF-295): 38.2 µM (inactive)
- GI50 (SF-539): 23.9 µM (inactive)
- GI50 (SK-MEL-28): 21.8 µM (inactive)
- GI50 (SK-MEL-2): 38.6 µM (inactive)
- GI50 (SK-MEL-5): 32.5 µM (inactive)
- GI50 (SK-OV-3): 32 µM (inactive)
- GI50 (SN12C): 38.4 µM (inactive)
- GI50 (SNB-19): 52 µM (inactive)
- GI50 (SNB-75): > 100 µM (inactive)
- GI50 (SR): 4.84 µM (inactive)
- GI50 (SW-620): 20.7 µM (inactive)
- GI50 (T47D): 56.8 µM (inactive)
- GI50 (TK-10): 23.9 µM (inactive)
- GI50 (U-251): 41.1 µM (inactive)
- GI50 (UACC-257): 18.2 µM (inactive)
- GI50 (UACC-62): 67 µM (inactive)
- GI50 (UO-31): 62.7 µM (inactive)

Compound: C#CCOC(=O)c1ccccc1O
- GI50 (786-0): > 100 µM (inactive)
- GI50 (A498): > 100 µM (inactive)
- GI50 (ACHN): > 100 µM (inactive)
- GI50 (BT-549): > 100 µM (inactive)
- GI50 (CAKI-1): > 100 µM (inactive)
- GI50 (CCRF-CEM): > 100 µM (inactive)
- GI50 (COLO 205): > 100 µM (inactive)
- GI50 (DU-145): > 100 µM (inactive)
- GI50 (EKVX): > 100 µM (inactive)
- GI50 (HCT-116): > 100 µM (inactive)
- GI50 (HCT-15): > 100 µM
- GI50 (HL-60): > 100 µM (inactive)
- GI50 (HOP-62): > 100 µM (inactive)
- GI50 (HOP-92): > 100 µM (inactive)
- GI50 (Hs-578T): > 100 µM (inactive)
- GI50 (IGROV-1): > 100 µM (inactive)
- GI50 (K562): > 100 µM (inactive)
- GI50 (KM12): > 100 µM (inactive)
- GI50 (LOX IMVI): > 100 µM (inactive)
- GI50 (M14): > 100 µM (inactive)
- GI50 (MCF7): > 100 µM (inactive)
- GI50 (MDA-MB-231): > 100 µM (inactive)
- GI50 (MDA-MB-435): > 100 µM (inactive)
- GI50 (MDA-N): > 100 µM (inactive)
- GI50 (MOLT-4): > 100 µM (inactive)
- GI50 (NCI-H226): > 100 µM (inactive)
- GI50 (NCI-H23): > 100 µM (inactive)
- GI50 (NCI-H460): > 100 µM (inactive)
- GI50 (NCI-H522): > 100 µM (inactive)
- GI50 (NCI/ADR-RES): > 100 µM (inactive)
- GI50 (OVCAR-4): > 100 µM (inactive)
- GI50 (OVCAR-5): > 100 µM (inactive)
- GI50 (OVCAR-8): > 100 µM (inactive)
- GI50 (PC-3): > 100 µM (inactive)
- GI50 (RPMI-8226): > 100 µM (inactive)
- GI50 (RXF 393): > 100 µM (inactive)
- GI50 (SF-268): > 100 µM (inactive)
- GI50 (SF-295): > 100 µM (inactive)
- GI50 (SF-539): > 100 µM (inactive)
- GI50 (SK-MEL-2): > 100 µM (inactive)
- GI50 (SK-MEL-5): > 100 µM (inactive)
- GI50 (SK-OV-3): > 100 µM (inactive)
- GI50 (SN12C): > 100 µM (inactive)
- GI50 (SNB-19): > 100 µM (inactive)
- GI50 (SNB-75): > 100 µM (inactive)
- GI50 (SR): > 100 µM (inactive)
- GI50 (SW-620): > 100 µM (inactive)
- GI50 (T47D): > 100 µM (inactive)
- GI50 (TK-10): > 100 µM (inactive)
- GI50 (U-251): > 100 µM (inactive)
- GI50 (UACC-257): > 100 µM (inactive)
- GI50 (UACC-62): > 100 µM (inactive)
- GI50 (UO-31): > 100 µM (inactive)

Compound: O=C(OCCC12CC3CC(CC(C3)C1)C2)c1ccc(NCc2cc(O)ccc2O)cc1
- GI50 (786-0): 1.28 µM (inactive)
- GI50 (A498): 1.9 µM (inactive)
- GI50 (A549): 2.14 µM (inactive)
- GI50 (ACHN): 1.63 µM (inactive)
- GI50 (BT-549): 0.241 µM (active)
- GI50 (CAKI-1): 0.363 µM (active)
- GI50 (CCRF-CEM): 0.101 µM (active)
- GI50 (COLO 205): 0.34 µM (active)
- GI50 (DU-145): 3.3 µM (inactive)
- GI50 (EKVX): 1.7 µM (inactive)
- GI50 (HCT-116): 1.26 µM (inactive)
- GI50 (HCT-15): 0.611 µM
- GI50 (HL-60): 0.176 µM (active)
- GI50 (HOP-62): 3.56 µM (inactive)
- GI50 (HOP-92): 3.74 µM (inactive)
- GI50 (HT-29): 1.94 µM (inactive)
- GI50 (Hs-578T): 0.213 µM (active)
- GI50 (IGROV-1): 0.0547 µM (active)
- GI50 (K562): 1.66 µM (inactive)
- GI50 (KM12): 0.69 µM (active)
- GI50 (LOX IMVI): 0.757 µM (active)
- GI50 (M14): 1.24 µM (inactive)
- GI50 (MCF7): 0.557 µM (active)
- GI50 (MDA-MB-231): 1.88 µM (inactive)
- GI50 (MDA-MB-435): 1.26 µM (inactive)
- GI50 (MDA-N): 1.36 µM (inactive)
- GI50 (MOLT-4): 0.262 µM (active)
- GI50 (Malme-3M): 1.85 µM (inactive)
- GI50 (NCI-H226): 2.92 µM (inactive)
- GI50 (NCI-H23): 0.689 µM (active)
- GI50 (NCI-H460): 1.51 µM (inactive)
- GI50 (NCI-H522): 0.148 µM (active)
- GI50 (NCI/ADR-RES): 0.687 µM (active)
- GI50 (OVCAR-3): 0.239 µM (active)
- GI50 (OVCAR-4): 0.904 µM (active)
- GI50 (PC-3): 0.573 µM (active)
- GI50 (RPMI-8226): 0.172 µM (active)
- GI50 (RXF 393): 0.638 µM (active)
- GI50 (SF-268): 2.49 µM (inactive)
- GI50 (SF-295): 2.02 µM (inactive)
- GI50 (SF-539): 0.652 µM (active)
- GI50 (SK-MEL-28): 0.849 µM (active)
- GI50 (SK-MEL-2): 1.24 µM (inactive)
- GI50 (SK-MEL-5): 1.12 µM (inactive)
- GI50 (SK-OV-3): 2.91 µM (inactive)
- GI50 (SN12C): 0.719 µM (active)
- GI50 (SNB-19): 1.26 µM (inactive)
- GI50 (SNB-75): 1.38 µM (inactive)
- GI50 (SR): 0.404 µM (active)
- GI50 (SW-620): 1.63 µM (inactive)
- GI50 (T47D): 0.214 µM (active)
- GI50 (TK-10): 1.52 µM (inactive)
- GI50 (U-251): 0.445 µM (active)
- GI50 (UACC-257): 0.604 µM (active)
- GI50 (UACC-62): 1.61 µM (inactive)
- GI50 (UO-31): 0.376 µM (active)
